Assay results as given in patent US6413972B1, “Nitrogen-containing heterocyclic compounds, their production and use” (Takeda Chemical Industries, Ltd., priority 1997, dated 2002).
Structures can show the parent of a compound that is named as a salt.

How the values were obtained:
human GnRH receptor = molecular target: T1, human GnRH receptor (Homo sapiens, UniProt P30968); test: 125I-leuprorelin binding inhibition on CHO cell membrane fraction containing human GnRH receptor; conditions: membrane fraction of human GnRH receptor-expressing CHO cells, 25° C. for 60 minutes, from a Hill plot
T1 construct: expressed in transfected cells; host or cells: CHO (Chinese hamster ovary) cells; membrane fraction
T1 sequence (P30968 1-328): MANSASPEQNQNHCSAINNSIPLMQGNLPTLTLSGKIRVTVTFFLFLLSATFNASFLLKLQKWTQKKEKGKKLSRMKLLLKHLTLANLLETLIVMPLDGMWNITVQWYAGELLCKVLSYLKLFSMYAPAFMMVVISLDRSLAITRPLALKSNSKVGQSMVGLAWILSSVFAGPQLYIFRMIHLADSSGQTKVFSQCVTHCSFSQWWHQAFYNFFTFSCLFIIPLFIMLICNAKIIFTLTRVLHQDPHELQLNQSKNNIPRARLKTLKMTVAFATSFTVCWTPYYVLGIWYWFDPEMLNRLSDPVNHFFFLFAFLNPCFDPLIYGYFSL
Protocol: To a tube containing 10 μl of a 3×10^−4 M aqueous solution of leuprorelin and 10 μl of 0.01 mg/ml lactoperoxidase, 10 μl (37 MBq) of a solution of Na^125I was added. After stirring, 10 μl of 0.001% H2O2 was added, and a reaction was carried out at about 15 to 25° C. for 20 minutes. By adding 700 μl of a 0.05% TFA (trifluoroacetic acid) solution, the reaction was stopped, followed by purification by reversed-phase HPLC. The HPLC conditions used are shown below. ^125I-leuprorelin was eluted at a retention time of 26 to 27 minutes. […]
The human membrane fraction prepared in paragraph (2) above was diluted with the assay buffer to yield a 200 μg/ml dilution, which was then dispensed at 188 μl per tube. […] To determine maximum binding quantity, a reaction mixture of 2 μl of 60% DMSO and 10 μl of 38 nM ^125I-leuprorelin was prepared. […]
After a reaction was carried out at 25° C. for 60 minutes, the reaction mixture was aspirated and filtered through a polyethyleneimine-treated Whatman glass filter (GF-F). After this filtration, the radioactivity of ^125I-leuprorelin remaining on the filter paper was measured, using a γ-counter.
The binding inhibition rate (%) for the subject compound (PMB) was calculated, using the equation: […]

Compound | melting point | IC50 (human GnRH receptor)
CN(Cc1ccccc1)Cc1c(-c2ccc(NC(=O)c3ccoc3)cc2)nc2n(Cc3c(F)cccc3F)cc(C(=O)c3ccccc3)c(=O)n12 [Example 31, 8-(2,6-difluorobenzyl)-5,8-dihydro-2-(3-furylcarbonylaminophenyl)-3-(N-methyl-N-benzylaminomethyl)-6-benzoyl-5-oxoimidazo [1,2-a]pyrimidine] | 172 to 174 °C | 
Cc1c(-c2ccccc2)nc2n(Cc3c(F)cccc3F)cc(C(=O)CC(C)C)c(=O)n12 (as salt: hydrochloride) [Example 28, 8-(2,6-difluorobenzyl)-5,8-dihydro-2-phenyl-3-methyl-6-(3-methylbutyryl)-5-oxoimidazo[1,2-a]pyrimidine] | 158 to 166 °C | 
CCNC(=O)Nc1ccc(-c2nc3n(Cc4c(F)cccc4F)cc(C(=O)OC(C)C)c(=O)n3c2CN(C)Cc2ccccc2)cc1 [Example 34, 8-(2,6-difluorobenzyl)-5,8-dihydro-2-[4-(ethylaminocarbonylamino)phenyl]-3-(N-methyl-N-benzylaminomethyl)-5-oxoimidazo[1,2-a]pyrimidine-6-carboxylic acid isopropyl ester] | 198 to 200 °C | 
CCOC(=O)c1cn(Cc2c(F)cccc2F)c2nc(-c3ccc(NC(=O)C(C)C)cc3)c(CN(C)Cc3ccccc3)n2c1=O [Example 14, 8-(2,6-difluorobenzyl)-5,8-dihydro-2-(4-isobutyrylaminophenyl)-3-(N-methyl-N-benzylaminomethyl)-5-oxoimidazo[1,2-a]pyrimidine-6-carboxylic acid ethyl ester] | 98 to 103 °C | 
Cc1c(Cc2ccccc2)c(=O)n2c(CN(C)Cc3ccccc3)c(-c3ccc(NC(=O)OC(C)(C)C)cc3)nc2n1Cc1c(F)cccc1F [Example 19, 2-[4-(N-Boc-amino)phenyl]-8-(2,6-difluorobenzyl)-5,8-dihydro-3-(N-methyl-N-benzylaminomethyl)-6-benzyl-7-methyl-5-oxoimidazo[1,2-a]pyrimidine] | 179 to 184 °C | 
CCNC(=O)Nc1ccc(-c2nc3n(Cc4c(F)cccc4F)cc(C(=O)OCC)c(=O)n3c2CN(C)Cc2ccccc2)cc1 [Example 15, 8-(2,6-difluorobenzyl)-5,8-dihydro-2-(4-ethylaminocarbonylaminophenyl)-3-(N-methyl-N-benzylaminomethyl)-5-oxoimidazo[1,2-a]pyrimidine-6-carboxylic acid ethyl ester] | 191 to 196 °C | 500 pM
CCOC(=O)c1cn(Cc2c(F)cccc2F)c2nc(-c3ccc([N+](=O)[O-])cc3)c(CBr)n2c1=O [Example 7, 3-bromomethyl-8-(2,6-difluorobenzyl)-5,8-dihydro-2-(4-nitrophenyl)-5-oxoimidazo[1,2-a]pyrimidine-6-carboxylic acid ethyl ester] | 205 to 210 °C | 
CCOC(=O)c1cnc2nc(-c3ccccc3)c(C)n2c1O [Example 1, 5-hydroxy-3-methyl-2-phenylimidazo[1,2-a]pyrimidine-6-carboxylic acid ethyl ester] | 220 to 225 °C | 
CCOC(=O)c1cn(Cc2c(F)cccc2F)c2nc(-c3ccc(N)cc3)c(CN(C)Cc3ccccc3)n2c1=O [Example 12, 2-(4-aminophenyl)-8-(2,6-difluorobenzyl)-5,8-dihydro-3-(N-methyl-N-benzylaminomethyl)-5-oxoimidazo[1,2-a]pyrimidine-6-carboxylic acid ethyl ester] | 161 to 166 °C | 
CCOC(=O)c1cn(Cc2c(F)cccc2F)c2nc(-c3ccc([N+](=O)[O-])cc3)c(C)n2c1=O [Example 5, 8-(2,6-difluorobenzyl)-5,8-dihydro-3-methyl-2-(4-nitrophenyl)-5-oxoimidazo[1,2-a]pyrimidine-6-carboxylic acid ethyl ester] | 219 to 221 °C | 
CCOC(=O)c1cn(Cc2c(F)cccc2F)c2nc(-c3ccc([N+](=O)[O-])cc3)c(CO)n2c1=O [Example 11, 8-(2,6-difluorobenzyl)-5,8-dihydro-3-(hydroxymethyl)-2-(4-nitrophenyl)-5-oxoimidazo[1,2-a]pyrimidine-6-carboxylic acid ethyl ester] | 230 to 232 °C | 
CC(=O)N(C(=O)OC(C)(C)C)c1ccc(-c2nc3n(Cc4c(F)cccc4F)c(C)c(Cc4ccccc4)c(=O)n3c2C)cc1 [Example 17, 8-(2,6-difluorobenzyl)-5,8-dihydro-2-(4-(N-Boc-N-acetylamino)phenyl)-3-methyl-6-benzyl-7-methyl-5-oxoimidazo[1,2-a]pyrimidine] | 176 to 177 °C | 
CCOC(=O)c1cn(Cc2c(F)cccc2F)c2nc(-c3ccc([N+](=O)[O-])cc3)c(CN(C)Cc3ccccc3)n2c1=O [Example 9, 8-(2,6-difluorobenzyl)-5,8-dihydro-3-(N-methyl-N-benzylaminomethyl)-2-(4-nitrophenyl)-5-oxoimidazo[1,2-a]pyrimidine-6-carboxylic acid ethyl ester] | 187 to 189 °C | 
CON(C)C(=O)c1cn(Cc2c(F)cccc2F)c2nc(-c3ccc(N)cc3)c(CN(C)Cc3ccccc3)n2c1=O [Example 30, 8-(2,6-difluorobenzyl)-5,8-dihydro-2-(4-aminophenyl)-3-(N-methyl-N-benzylaminomethyl)-5-oxoimidazo[1,2-a]pyrimidine-6-(N-methyl-N-methoxy)carboxamide] | 89 to 91 °C | 
